# From ChEMBL document CHEMBL5528054, “Novel Cocrystal Structures of Peptide Antagonists Bound to the Human Melanocortin Receptor 4 Unveil Unexplored Grounds for Structure-Based Drug Design” (J Med Chem, 2024)
# pIC50: −log10 of the molar value. The source made the active and inactive calls. No cut-off for these calls is given here.
# Assays:
# [1] = target: T1, Melanocyte-stimulating hormone receptor (Homo sapiens, UniProt Q01726); test: Partial agonist activity at C-terminal HA-tagged human MC1-R stably expressed in HEK293 cells co-expressing GScAMP22P cAMP reporter assessed as inhibition of alpha-MSH induced cAMP production by cell based luminescence assay relative to control; format: functional; design: concentration or dose not given beside the values; conditions: filed as partial agonist, concentration not given here
# Target sequence in this assay (Q01726 whole entry, looked up): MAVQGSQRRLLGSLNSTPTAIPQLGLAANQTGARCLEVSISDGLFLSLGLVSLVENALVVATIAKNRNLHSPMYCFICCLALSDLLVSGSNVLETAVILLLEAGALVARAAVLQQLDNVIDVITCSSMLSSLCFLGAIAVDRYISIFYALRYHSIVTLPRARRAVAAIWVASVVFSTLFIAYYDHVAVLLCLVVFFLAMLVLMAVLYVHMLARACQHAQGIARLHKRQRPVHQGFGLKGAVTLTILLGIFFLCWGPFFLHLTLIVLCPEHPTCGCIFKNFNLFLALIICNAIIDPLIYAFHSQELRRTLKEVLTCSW
# Melanocortin receptor 3 = Melanocortin receptor 3 (Homo sapiens, UniProt P41968); test: Antagonist activity at C-terminal HA-tagged human MC3-R stably expressed in HEK293 cells co-expressing GScAMP22P cAMP reporter assessed as inhibition of alpha-MSH induced cAMP production by cell based luminescence assay; format: functional; conditions: for pIC50: read-out: IC50
# Sequence of Melanocortin receptor 3 (P41968 whole entry): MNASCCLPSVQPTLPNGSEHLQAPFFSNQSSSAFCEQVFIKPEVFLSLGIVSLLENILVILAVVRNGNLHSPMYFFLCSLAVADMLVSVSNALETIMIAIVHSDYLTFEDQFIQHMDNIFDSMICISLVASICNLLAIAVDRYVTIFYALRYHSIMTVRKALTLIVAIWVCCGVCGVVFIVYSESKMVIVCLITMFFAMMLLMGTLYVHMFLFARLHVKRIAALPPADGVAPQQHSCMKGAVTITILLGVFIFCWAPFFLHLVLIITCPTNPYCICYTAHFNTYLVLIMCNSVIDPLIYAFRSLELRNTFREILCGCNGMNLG
# HEK293 [2] = test: (§1) Selectivity ratio of IC50 for C-terminal HA-tagged human MC4-R stably expressed in HEK293 cells co-expressing GScAMP22P cAMP reporter assessed as inhibition of alpha-MSH induced cAMP production to IC50 for C-terminal HA-tagged human MC3-R stably expressed in HEK293 cells co-expressing GScAMP22P cAMP reporter assessed as inhibition of alpha-MSH induced cAMP production; format: cell-based
# HEK293 [3] = test: as §1, with “MC1-R” for “MC3-R”; format: cell-based
# Melanocortin receptor 4 [4] = target: T2, Melanocortin receptor 4 (Homo sapiens, UniProt P32245); test: Antagonist activity at C-terminal HA-tagged human MC4-R stably expressed in HEK293 cells co-expressing GScAMP22P cAMP reporter assessed as inhibition of alpha-MSH induced cAMP production by cell based luminescence assay; format: functional; conditions: for pIC50: read-out: IC50
# T2 sequence (P32245 whole entry): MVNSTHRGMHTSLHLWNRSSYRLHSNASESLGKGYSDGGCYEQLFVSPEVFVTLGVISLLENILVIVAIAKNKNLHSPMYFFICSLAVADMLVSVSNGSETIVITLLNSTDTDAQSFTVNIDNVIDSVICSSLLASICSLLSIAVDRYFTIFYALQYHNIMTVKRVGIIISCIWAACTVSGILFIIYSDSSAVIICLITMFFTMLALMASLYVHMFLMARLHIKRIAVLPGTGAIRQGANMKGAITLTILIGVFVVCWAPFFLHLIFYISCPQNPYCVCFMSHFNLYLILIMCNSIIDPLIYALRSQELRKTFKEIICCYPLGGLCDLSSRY
# [5] = target: T1, Melanocyte-stimulating hormone receptor; test: Partial agonist activity at C-terminal HA-tagged human MC1-R stably expressed in HEK293 cells co-expressing GScAMP22P cAMP reporter assessed as inhibition of alpha-MSH induced cAMP production by cell based luminescence assay; format: functional
# Target sequence in this assay (Q01726 whole entry): as the sequence (Q01726 whole entry, looked up) above
# HEK293 [6] = test: Selectivity ratio of IC50 for C-terminal HA-tagged human MC1-R stably expressed in HEK293 cells co-expressing GScAMP22P cAMP reporter assessed as inhibition of alpha-MSH induced cAMP production to IC50 for C-terminal HA-tagged human MC4-R stably expressed in HEK293 cells co-expressing GScAMP22P cAMP reporter assessed as inhibition of alpha-MSH induced cAMP production; format: cell-based
# T-REx-293 = test: Inhibition of Kir7.1 […] mutant (unknown origin) expressed in human T-REx-293 cells co-expressing human MC4-R assessed as decrease in K+ conductance at 10 uM incubated for 24 hrs by high-throughput automated patch clamp analysis; format: cell-based
# Mus musculus [7] = test: In vivo activation of Kir7.1 channel in cannulated C57BL/6J mouse assessed as increase in food intake at 500 pM,ICV administration and measured after 4 hrs; format: functional
# Mus musculus [8] = test: In vivo activation of Kir7.1 channel in cannulated C57BL/6J mouse assessed as increase in food intake at 500 pM,ICV administration and measured upto 24 hrs; format: functional
# [9] = system: Melanocortin receptor 4 (Homo sapiens), P32245 [D122A]; test: Agonist activity at N-terminal fused BRIL-Flag tagged human MC4-R D122A mutant transiently transfected in HEK293 cells assessed as fold change in cAMP accumulation by ELISA; format: functional, cell-based; conditions: filed as agonist
# Sequence of Melanocortin receptor 4 (Homo sapiens), P32245 [D122A] (P32245 whole entry D122A, the tested form may be a part): as the sequence (P32245 whole entry) above, with D122A counted along it
# [10] = system: Melanocortin receptor 4 (Homo sapiens), P32245 [E100A]; test: Agonist activity at N-terminal fused BRIL-Flag tagged human MC4-R E100A mutant transiently transfected in HEK293 cells assessed as fold change in cAMP accumulation by ELISA; format: cell-based; conditions: filed as agonist
# Sequence of Melanocortin receptor 4 (Homo sapiens), P32245 [E100A] (P32245 whole entry E100A, the tested form may be a part): as the sequence (P32245 whole entry) above, with E100A counted along it
# HEK293 [11] = test: Selectivity ratio of EC50 for agonist activity at N-terminal FLAG tagged MC4-R (unknown origin) transiently transfected in HEK293 cells to EC50 for agonist activity at N-terminal FLAG tagged MC1-R (unknown origin) transiently transfected in HEK293 cells; format: cell-based
# [12] = system: Melanocortin receptor 4 (Homo sapiens), P32245 [D126A]; test: Agonist activity at N-terminal fused BRIL-Flag tagged human MC4-R D126A mutant transiently transfected in HEK293 cells assessed as fold change in cAMP accumulation by ELISA; format: cell-based; conditions: filed as agonist
# Sequence of Melanocortin receptor 4 (Homo sapiens), P32245 [D126A] (P32245 whole entry D126A, the tested form may be a part): as the sequence (P32245 whole entry) above, with D126A counted along it
# Melanocortin receptor 4 [13] = target: T2, Melanocortin receptor 4; conditions: HEK293, filed as antagonist, time 1.0 hrs
# Mus musculus [14] = test: In vivo activation of Kir7.1 channel in cannulated C57BL/6J mouse assessed as increase in food intake at 500 pM,ICV administration and measured after 6 hrs; format: functional
# Mus musculus [15] = test: In vivo activation of Kir7.1 channel in cannulated C57BL/6J mouse assessed as increase in food intake at 500 pM,ICV administration for 7 days; format: functional; conditions: time 7.0 day
inhibition [1],pIC50 (Melanocortin receptor 3),pIC50 (Melanocortin receptor 4 [4]),pIC50 [5],SMILES,Ratio IC50 (HEK293 [2]),Ratio IC50 (HEK293 [3]),other results
86.4%,6.89,7.73,6.41,CCCC[C@H](NC(C)=O)C(=O)N[C@H]1CC(=O)NCCCC[C@@H](C(N)=O)NC(=O)CNC(=O)[C@H](Cc2c[nH]c3ccccc23)NC(=O)[C@H](CCCNC(=N)N)NC(=O)[C@@H](Cc2ccc3ccccc3c2)NC(=O)[C@@H]2C[C@H](n3cc(CCC(=O)O)nn3)CN2C1=O,6.9,20.8,
93.7%,8.03,8.16,7.98,CCCC[C@H](NC(C)=O)C(=O)N[C@H]1CC(=O)NCCCC[C@@H](C(N)=O)NC(=O)CNC(=O)[C@H](Cc2c[nH]c3ccccc23)NC(=O)[C@H](CCCNC(=N)N)NC(=O)[C@@H](Cc2ccc3ccccc3c2)NC(=O)[C@@H]2C[C@H](NC(=O)CC3CCCCC3)CN2C1=O,1.6,1.8,IC50 (Melanocortin receptor 4 [4]; read-out: pIC50 (converted)): 5.89 nM
85.1%,8.05,8.53,9.60,CCCC[C@H](NC(C)=O)C(=O)N[C@H]1CC(=O)NCCCC[C@@H](C(N)=O)NC(=O)CNC(=O)[C@H](Cc2c[nH]c3ccccc23)NC(=O)[C@H](CCCNC(=N)N)NC(=O)[C@@H](Cc2ccc3ccccc3c2)NC(=O)[C@@H]2C[C@H](NC(=O)[C@@H](N)CCCN)CN2C1=O,3,0.1,Ratio IC50 (HEK293 [6]): 12
85.5%,7.37,8.35,8.77,CCCC[C@H](NC(C)=O)C(=O)N[C@H]1CC(=O)NCCCC[C@@H](C(N)=O)NC(=O)CNC(=O)[C@H](Cc2c[nH]c3ccccc23)NC(=O)[C@H](CCCNC(=N)N)NC(=O)[C@@H](Cc2ccc3ccccc3c2)NC(=O)[C@@H]2C[C@H](n3cc(CCN)nn3)CN2C1=O,9.5,0.4,
86.8%,,,6.52,CCCC[C@H](NC(C)=O)C(=O)N[C@H]1CC(=O)NCCCC[C@@H](C(N)=O)NC(=O)[C@H](CCCNC(=N)N)NC(=O)[C@H](Cc2c[nH]c3ccccc23)NC(=O)[C@H](CCCNC(=N)N)NC(=O)[C@@H](Cc2ccc3ccccc3c2)NC(=O)[C@@H]2CCCN2C1=O,,,inhibition (T-REx-293): Active
,,,,CC(=O)N[C@@H](CCCNC(=N)N)C(=O)N[C@H]1CSSC[C@@H](C(N)=O)NC(=O)[C@H](Cc2c[nH]c3ccccc23)NC(=O)[C@H](CCCNC(=N)N)NC(=O)[C@@H](Cc2ccccc2)NC(=O)[C@H](Cc2c[nH]cn2)NC(=O)[C@@H](C)NC1=O,,,fold change (FC) [9]: 2; fold change (FC) [10]: 2; Ratio EC50 (HEK293 [11]): 20; fold change (FC) [12]: 205
,,,,CCCC[C@H](NC(C)=O)C(=O)N[C@H]1CC(=O)NCCCC[C@@H](C(N)=O)NC(=O)[C@@H](Cc2ccccc2)NC(=O)[C@H](CCCN=C(N)N)NC(=O)[C@@H](Cc2ccc3ccccc3c2)NC(=O)[C@@H]2CCCN2C1=O,,,Tm (Melanocortin receptor 4 [13]): 62.6 °C
80.7%,8.25,8.55,9.70,CCCC[C@H](NC(C)=O)C(=O)N[C@H]1CC(=O)NCCCC[C@@H](C(N)=O)NC(=O)CNC(=O)[C@H](Cc2c[nH]c3ccccc23)NC(=O)[C@H](CCCNC(=N)N)NC(=O)[C@@H](Cc2ccc3ccccc3c2)NC(=O)[C@@H]2C[C@H](NC(=O)[C@@H](N)CCC(=O)O)CN2C1=O,2,0.1,Ratio IC50 (HEK293 [6]): 14
89.2%,8.29,,7.92,CCCC[C@H](NC(C)=O)C(=O)N[C@H]1CC(=O)NCCCC[C@@H](C(N)=O)NC(=O)CNC(=O)[C@H](Cc2c[nH]c3ccccc23)NC(=O)[C@H](CCCN=C(N)N)NC(=O)[C@@H](Cc2ccc3ccccc3c2)NC(=O)[C@@H]2CCCN2C1=O,,,IC50 (Melanocortin receptor 3; read-out: pIC50 (converted)): 5.5 nM; inhibition (T-REx-293): Active
84.7%,7.58,8.27,7.27,CCCC[C@H](NC(C)=O)C(=O)N[C@H]1CC(=O)NCCCC[C@@H](C(N)=O)NC(=O)CNC(=O)[C@H](Cc2c[nH]c3ccccc23)NC(=O)[C@H](CCCNC(=N)N)NC(=O)[C@@H](Cc2ccc3ccccc3c2)NC(=O)[C@@H]2C[C@H](n3cc(-c4ccccc4)nn3)CN2C1=O,4.9,9.9,

SMILES,inhibition [1],pIC50 (Melanocortin receptor 3),pIC50 (Melanocortin receptor 4 [4]),pIC50 [5],Ratio IC50 (HEK293 [2]),Ratio IC50 (HEK293 [3]),other results
CCCC[C@H](NC(C)=O)C(=O)N[C@H]1CC(=O)NCCCC[C@@H](C(N)=O)NC(=O)CNC(=O)[C@H](Cc2c[nH]c3ccccc23)NC(=O)[C@H](CCCNC(=N)N)NC(=O)[C@@H](Cc2ccc3ccccc3c2)NC(=O)[C@@H]2C[C@H](n3cc(C(C)(C)N)nn3)CN2C1=O,83.8%,7.46,8.30,8.60,6.8,0.5,Activity (Mus musculus [7]): inactive; Activity (Mus musculus [8]): inactive
CCCC[C@H](NC(C)=O)C(=O)N[C@H]1CC(=O)NCCCC[C@@H](C(N)=O)NC(=O)CNC(=O)[C@H](Cc2c[nH]c3ccccc23)NC(=O)[C@H](CCCNC(=N)N)NC(=O)[C@@H](Cc2ccc3ccccc3c2)NC(=O)[C@@H]2C[C@H](n3cc(-c4ccccn4)nn3)CN2C1=O,87.2%,7.50,8.17,6.69,4.5,30.1,
CCCCC(NC(C)=O)C(=O)N[C@H]1CC(=O)NCCCC[C@@H](C(N)=O)NC(=O)CNC(=O)[C@H](Cc2c[nH]c3ccccc23)NC(=O)[C@H](CCCNC(=N)N)NC(=O)[C@@H](Cc2ccc3ccccc3c2)NC(=O)[C@@H]2C[C@@H](n3cc(C(C)(C)N)nn3)CN2C1=O (stereo partly specified),86.7%,,,,16.7,0.4,Activity (Mus musculus [14]): Active; Activity (Mus musculus [15]): Active
